Data published in patent US20240279283A1, “CYCLIC PEPTIDE ANTIBIOTICS” (priority 2021, published 2024).
Bridge positions count the residues as written; N and C are the ends. Square brackets hold non-standard residues; d marks the D form. Peptide text beside a SMILES is read from it. 1Nal = N[C@@H](Cc1cccc2ccccc12)C(=O)O; 2Nal = N[C@@H](Cc1ccc2ccccc2c1)C(=O)O; His(π-Me) = Cn1cncc1C[C@H](N)C(=O)O; NMeY = CN[C@@H](Cc1ccc(O)cc1)C(=O)O; Abu = CC[C@H](N)C(=O)O

Experiments:
Type in all cases: cell-based
Conditions in all cases: LB broth, 5×10^5 CFU/ml, 37° C., 18 hours, scored by eye
E. coli 25922 = assay: Minimum Inhibitory Concentration (MIC) determination, E. coli 25922; set-up: unit not given here
Method: (§1) MICs were determined by performing two-fold serial dilutions of peptides in LB broth to a final volume of 0.1 ml in round-bottom 96-well assay plates (Corning Life Sciences No 3788). Peptides were initially resuspended in 100% DMSO to 10 mM and subsequently diluted in LB medium to the appropriate concentration. Each well was inoculated with 5×10^5 CFU/ml of the screening stain and incubated at 37° C. without agitation for 18 hours. Plates were scored by eye, and the lowest compound concentration preventing visible growth was determined to be the MIC.

E. coli BW25113 = assay: Minimum Inhibitory Concentration (MIC) determination, E. coli BW25113; set-up: unit not given here
Method: as §1

E. coli 25922 IMP = assay: Minimum Inhibitory Concentration (MIC) determination, E. coli 25922 IMP
Method: as §1

Compound | MIC E. coli 25922 WUXI::MIC (E. coli 25922) | MIC E. coli BW25113 WUXI::MIC (E. coli BW25113) | MIC E. coli 25922 IMP WUXI::MIC (E. coli 25922 IMP)
CC[C@H](C)[C@@H]1NC(=O)[C@H]([C@@H](C)O)NC(=O)[C@H](Cc2cncn2C)NC(=O)[C@H](Cc2ccccc2)NC(=O)CSC[C@@H](C(=O)NCC(N)=O)NC(=O)[C@H](Cc2ccc(O)cc2)NC(=O)[C@H](Cc2c[nH]c3ccccc23)NC(=O)[C@H](Cc2ccc(O)cc2)NC(=O)[C@H](CCCNC(=N)N)NC(=O)[C@H](Cc2ccccc2)NC(=O)C(C)(C)NC(=O)[C@H](CO)NC(=O)[C@H](CCCCN)NC(=O)[C@H](CCCNC(=N)N)NC1=O (racemic) [Compound 59] | 8 | 16 | 1
CC[C@@H]1NC(=O)[C@H](Cc2ccccc2)NC(=O)CSC[C@@H](C(=O)NCC(N)=O)NC(=O)[C@H](Cc2cncn2C)NC(=O)[C@H](CCCNC(=N)N)NC(=O)[C@H](Cc2c[nH]cn2)NC(=O)[C@H](Cc2ccc(O)cc2)NC(=O)[C@H](CCCNC(=N)N)NC(=O)[C@H](CO)NC(=O)CNC(=O)[C@H](Cc2c[nH]cn2)NC(=O)[C@H](Cc2cccc3ccccc23)NC1=O [Compound 32, (3R,6S,9S,12S,15S,18S,21S,27S,30S, 33S,36S)-N-(2-amino-2-oxo-ethyl)-36-benzyl-33-ethyl-9,18-bis(3-guanidinopropyl)-21-(hydroxymethyl)-15-[(4-hydroxyphenyl)methyl]-12,27-bis(1H-imidazol-4-ylmethyl)-6-[(3-methylimidazol-4-yl)methyl]-30-(1-naphthylmethyl)-5,8,11,14,17,20,23,26,29,32,35,38-dodecaoxo-1-thia-4,7,10,13,16,19,22,25,28,31,34,37-dodecazacyclononatriacontane-3-carboxamide] ({CH2CO}-F[Abu][1Nal]HGSRYHR[His(π-Me)]CG-NH2; thioether N-12) | 25 |  | 0.031
CC[C@H](C)[C@@H]1NC(=O)[C@H]([C@@H](C)O)NC(=O)[C@H](Cc2cncn2C)NC(=O)[C@H](Cc2ccccc2)NC(=O)CSC[C@@H](C(=O)NCC(N)=O)NC(=O)[C@H](Cc2ccc(O)cc2)NC(=O)[C@H](Cc2ccc(Cl)cc2)NC(=O)[C@H](Cc2ccc(O)cc2)NC(=O)[C@H](CCCNC(=N)N)NC(=O)[C@H](Cc2ccccc2)NC(=O)C(C)(C)NC(=O)[C@H](CO)NC(=O)[C@H](CCCCN)NC(=O)[C@H](CCCNC(=N)N)NC1=O (mixture of isomers) [Compound 60] | 16 | 16 | 1
CC[C@@H]1NC(=O)[C@H](Cc2ccccc2)NC(=O)CSC[C@@H](C(=O)NCC(N)=O)NC(=O)[C@H](Cc2cncn2C)NC(=O)[C@H](CCCNC(=N)N)NC(=O)[C@H](Cc2c[nH]cn2)NC(=O)[C@H](Cc2ccc(O)cc2)N(C)C(=O)[C@H](C)NC(=O)[C@H](CO)NC(=O)CNC(=O)[C@H](Cc2c[nH]cn2)NC(=O)[C@H](Cc2cccc3ccccc23)NC1=O [Compound 36] ({CH2CO}-F[Abu][1Nal]HGSA[NMeY]HR[His(π-Me)]CG-NH2; thioether N-12) | 100 |  | 100
CC[C@@H]1NC(=O)[C@H](Cc2ccccc2)NC(=O)CSC[C@@H](C(=O)NCC(N)=O)NC(=O)[C@H](Cc2cncn2C)NC(=O)[C@H](CCCNC(=N)N)NC(=O)[C@H](Cc2c[nH]cn2)NC(=O)[C@H](Cc2ccc(O)cc2)N(C)C(=O)[C@H](CCCNC(=N)N)NC(=O)[C@H](CO)NC(=O)CNC(=O)[C@H](Cc2c[nH]cn2)NC(=O)[C@H](Cc2ccc3ccccc3c2)NC1=O [Compound 25] ({CH2CO}-F[Abu][2Nal]HGSR[NMeY]HR[His(π-Me)]CG-NH2; thioether N-12) | 25 |  | 0.031
